According to patent publication US11827628B2, “Compositions and methods for inhibition of the JAK pathway” (Rigel Pharmaceuticals, Inc., priority 2005, dated 2023):

System: Primary human T-cells
Assay: Primary Human T-Cell Proliferation Assay Stimulated with IL-2 (CellTiter-Glo)
Format: cell-based
Conditions: primary human T-cell proliferation stimulated with IL-2; read-out: IC50, Example 42
Procedure, shortened: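 IC50 derived from CellTiter-Glo ATP signal after 72 hours of IL-2-driven proliferation at 37° C. Cells: primary human T-cells from blood, stimulated beforehand 3-4 days on anti-CD3/anti-CD28 with IL-2, then rested from IL-2 before compound exposure in duplicate; IL-2-free wells served as unstimulated control.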

Compound	IC50
Cc1cc(COc2ccc(Nc3nc(Nc4ccc(C)c(S(N)(=O)=O)c4)ncc3F)cc2C)no1 [Compound I-234, N2-(3-Aminosulfonyl-4-methylphenyl)-5-fluoro-N4-[3-methyl-4-(5-methylisoxazol-3-yl)methyleneoxyphenyl]-2,4-pyrimidinediamine]	1010 nM
Cc1cc(COc2ccc(Nc3nc(Nc4cc(Cl)c(C)c(S(N)(=O)=O)c4)ncc3F)cc2C)no1 [Compound I-216, N2-(3-Aminosulfonyl-5-chloro-4-methylphenyl)-5-fluoro-N4-[3-methyl-4-(5-methylisoxazol-3-yl)methyleneoxyphenyl]-2,4-pyrimidinediamine]	493 nM
Cc1noc(COc2cccc(Nc3nc(Nc4cccc(S(N)(=O)=O)c4)ncc3F)c2)n1 [Compound I-252, N2-(3-Aminosulfonylphenyl)-5-fluoro-N4-[3-(3-methyl-1,2,4-oxadiazol-5-yl)methyleneoxyphenyl]-2,4-pyrimidinediamine]	558 nM
Cc1noc(COc2ccc(Nc3nc(Nc4ccc(S(N)(=O)=O)cc4)ncc3F)cc2)n1 [Compound I-231, N2-(4-Aminosulfonylphenyl)-5-fluoro-N4-[4-(3-methyl-1,2,4-oxadiazol-5-yl)methyleneoxyphenyl]-2,4-pyrimidinediamine]	290 nM
CCN(CC)CCNS(=O)(=O)c1cccc(Nc2ncc(F)c(Nc3ccc(OCc4csc(C)n4)cc3)n2)c1 [Compound I-283, N2-[3-(2-N,N-Diethylaminoethyl)aminosulfonylphenyl)-5-fluoro-N4-[4-(2-methylthizol-4-yl)methyleneoxyphenyl]-2,4-pyrimidinediamine]	362 nM
CCN(CC)CCNS(=O)(=O)c1cccc(Nc2ncc(F)c(Nc3ccc(OCc4cc(C)on4)cc3)n2)c1 [Compound I-241, N2-[3-(2-N,N-Diethylaminoethyl)aminosulfonylphenyl)-5-fluoro-N4-[4-(5-methylisoxazol-3-yl)methyleneoxyphenyl]-2,4-pyrimidinediamine]	442 nM
Cc1ccc(Nc2ncc(F)c(Nc3cccc(CNC(=O)C4CC4)c3)n2)cc1S(N)(=O)=O [III-40, N2-(3-aminosulfonyl-4-methyl)phenyl-N4-(3-cyclopropylcarbonylaminomethyl)phenyl-5-fluoro-2,4-pyrimidinediamine]	229 nM
CCN(CC)CCNS(=O)(=O)c1ccc(Nc2ncc(F)c(Nc3ccc(OCc4cc(C)on4)cc3)n2)cc1 [Compound I-246, N2-[4-(2-N,N-Diethylaminoethyl)aminosulfonylphenyl)-5-fluoro-N4-[4-(5-methylisoxazol-3-yl)methyleneoxyphenyl]-2,4-pyrimidinediamine]	182 nM
CNS(=O)(=O)c1cc(Nc2ncc(F)c(Nc3ccc(OCc4nc(C)no4)cc3)n2)ccc1C [Compound I-260, 5-Fluoro-N2-[3-N-(methyl)aminosulfonyl-4-methylphenyl)-N4-[4-(3-methyl-1,2,4-oxadiazol-5-yl)methyleneoxyphenyl]-2,4-pyrimidinediamine]	223 nM
Cc1cnc(Nc2ccc(S(N)(=O)=O)cc2)nc1Nc1ccc(CCC#N)cc1 [III-27, N2-(4-Aminosulfonylphenyl)-N4-(4-cyanoethylenephenyl)-5-methyl-2,4-pyrimidinediamine]	119 nM
CN1CCC(Oc2ccc(Nc3nc(Nc4cccc(S(N)(=O)=O)c4)ncc3F)cc2)C1 (stereo not drawn) [II-9, N2-(3-Aminosulfonylphenyl)-5-fluoro-N4-(N-methylpyrrolidin-3-yloxyphenyl)-2,4-pyrimidinediamine]	1320 nM
N#CCc1ccc(Nc2nc(Nc3cccc(S(N)(=O)=O)c3)ncc2F)cc1 [III-4, N2-(3-Aminosulfonyl)phenyl-N4-(4-cyanomethyl)phenyl-5-fluoro-2,4-pyrimidinediamine]	171 nM
Cc1noc(COc2cccc(Nc3nc(Nc4ccc(C)c(S(N)(=O)=O)c4)ncc3F)c2)n1 [Compound I-254, N2-(3-Aminosulfonyl-4-methylphenyl)-5-fluoro-N4-[3-(3-methyl-1,2,4-oxadiazol-5-yl)methyleneoxyphenyl]-2,4-pyrimidinediamine]	1910 nM
Cc1cc(COc2ccc(Nc3nc(Nc4ccc(C)c(S(N)(=O)=O)c4)ncc3F)cc2Cl)no1 [Compound I-221, N2-(3-Aminosulfonyl-4-methylphenyl)-N4-[3-chloro-4-(5-methylisoxazol-3-yl)methyleneoxyphenyl]-5-fluoro-2,4-pyrimidinediamine]	2680 nM
N#CCCc1ccc(Nc2nc(Nc3cccc(S(N)(=O)=O)c3)ncc2F)cc1 [III-14, N2-(3-aminosulfonylphenyl)-N4-[4-(cyanoethylene)phenyl]-5-fluoro-2,4-pyrimidinediamine]	52.6 nM
Cc1nc(COc2ccc(Nc3nc(Nc4ccc(S(N)(=O)=O)cc4)ncc3F)cc2)no1 [Compound I-275, N2-(4-Aminosulfonyl)phenyl-5-fluoro-N4-[4-(5-methyl-1,2,4-oxadiazol-3-yl)methoxy]phenyl-2,4-pyrimidinediamine]	577 nM
N#CCCc1ccc(Nc2nc(Nc3ccc(F)c(S(N)(=O)=O)c3)ncc2F)cc1 [III-16, N2-(3-Aminosulfonyl-4-fluorophenyl)-N4-[4-(cyanoethylene)phenyl]-5-fluoro-2,4-pyrimidinediamine]	342 nM

Compound	IC50
Cc1nnc(COc2ccc(Nc3nc(Nc4cccc(S(N)(=O)=O)c4)ncc3F)cc2)o1 [Compound I-277, N2-(3-aminosulfonylphenyl)-5-fluoro-N4-[4-(5-methyl-1,3,4-oxadiazol-2-yl)methyleneoxyphenyl]-2,4-pyrimidinediamine]	91.5 nM
Cc1cc(Nc2nc(Nc3cccc(S(N)(=O)=O)c3)ncc2F)cc(C)c1OCC#N [Compound I-26, N2-(3-Aminosulfonyl)phenyl-N4-(4-cyanomethoxy-3,5-dimethyl)phenyl-5-fluoro-2,4-pyrimidinediamine]	401 nM
Cc1cc(COc2ccc(Nc3nc(Nc4ccc(C)c(S(N)(=O)=O)c4)ncc3F)cc2)no1 [Compound I-219, N2-(3-Aminosulfonyl-4-methylphenyl)-5-fluoro-N4-[4-(5-methylisoxazol-3-yl)methyleneoxyphenyl]-2,4-pyrimidinediamine]	123 nM
N#CCCc1ccc(Nc2nc(Nc3cccc(S(N)(=O)=O)c3)ncc2F)cc1C(F)(F)F [III-31, N4-(4-Cyanoethylene-3-trifluoromethylphenyl)-5-fluoro-N2-(3-aminosulfonylphenyl)-2,4-pyrimidinediamine]	328 nM
N#CCOc1ccc(Nc2nc(Nc3ccc(F)c(S(N)(=O)=O)c3)ncc2F)cc1 [Compound I-33, N2-(3-Aminosulfonyl-4-fluoro)phenyl-N4-(4-cyanomethoxy)phenyl-5-fluoro-2,4-pyrimidinediamine]	170 nM
COc1cc(Nc2ncc(F)c(Nc3ccc(OCC#N)cc3)n2)ccc1S(N)(=O)=O [Compound I-28, N2-(4-Aminosulfonyl-3-methoxyphenyl)-N4-(4-cyanomethoxy)phenyl-5-fluoro-2,4-pyrimidinediamine]	560 nM
Cc1cc(Nc2nc(Nc3ccc(S(N)(=O)=O)cc3)ncc2F)ccc1OCC#N [Compound I-22, N2-(4-Aminosulfonyl)phenyl-N4-(4-cyanomethoxy-3-methyl)phenyl-5-fluoro-2,4-pyrimidinediamine]	944 nM
Cc1ccc(Nc2ncc(F)c(Nc3ccc(OCC#N)cc3)n2)cc1S(N)(=O)=O [Compound I-20, N2-(3-Aminosulfonyl-4-methyl)phenyl-N4-(4-cyanomethoxy)phenyl-5-fluoro-2,4-pyrimidinediamine]	66.2 nM
Cc1cc(COc2ccc(Nc3nc(Nc4ccc(C)c(S(N)(=O)=O)c4)ncc3F)cc2F)no1 [Compound I-222, N2-(3-Aminosulfonyl-4-methylphenyl)-5-fluoro-N4-[3-fluoro-4-(5-methylisoxazol-3-yl)methyleneoxyphenyl]-2,4-pyrimidinediamine]	582 nM
Cc1ccc(Nc2ncc(F)c(Nc3cc(C)c(OCC#N)c(C)c3)n2)cc1S(N)(=O)=O [Compound I-27, N2-(3-Aminosulfonyl-4-methyl)phenyl-N4-(4-cyanomethoxy-3,5-dimethyl)phenyl-5-fluoro-2,4-pyrimidinediamine]	914 nM
N2-(3-Aminocarbonyl-5-methylphenyl)-5-fluoro-N2-[4-(1-methylpyrazol-5-yl)amidophenyl)-2,4-pyrimidinediamine [II-21]	1760 nM
Cc1cc(COc2ccc(Nc3nc(Nc4cc(Cl)c(C)c(S(N)(=O)=O)c4)ncc3F)cc2F)no1 [Compound I-223, N2-(3-Aminosulfonyl-5-chloro-4-methylphenyl)-5-fluoro-N4-[3-fluoro-4-(5-methylisoxazol-3-yl)methyleneoxyphenyl]-2,4-pyrimidinediamine]	625 nM
Cc1ccc(Nc2ncc(F)c(Nc3ccc(OC4CCN(C)C4)cc3)n2)cc1S(N)(=O)=O (stereo not drawn) [II-10, N2-(3-Aminosulfonyl-4-methylphenyl)-5-fluoro-N4-(N-methylpyrrolidin-3-yloxyphenyl)-2,4-pyrimidinediamine]	876 nM
Cc1noc(COc2ccc(Nc3nc(Nc4cccc(S(=O)(=O)NCc5oc(=O)oc5C)c4)ncc3F)cc2)n1 [Compound I-257, N2-{3-[(N-5-Methyl-1,3-dioxolene-2-one-4-yl)methylene]aminosulfonylphenyl}-5-fluoro-N4-[4-(3-methyl-1,2,4-oxadiazol-5-yl)methyleneoxyphenyl]-2,4-pyrimidinediamine]	102 nM
Cc1cc(COc2ccc(Nc3nc(Nc4cc(C)c(F)c(S(N)(=O)=O)c4)ncc3F)cc2F)no1 [Compound I-224, N2-(3-Aminosulfonyl-4-fluoro-5-methylphenyl)-5-fluoro-N4-[3-fluoro-4-(5-methylisoxazol-3-yl)methyleneoxyphenyl]-2,4-pyrimidinediamine]	194 nM
CCN(CC)CCNS(=O)(=O)c1ccc(Nc2ncc(F)c(Nc3cccc(OCc4nc(C)no4)c3)n2)cc1 [Compound I-256, N2-[4-(2-N,N-Diethylaminoethyl)aminosulfonylphenyl)-5-fluoro-N4-[3-(3-methyl-1,2,4-oxadiazol-5-yl)methyleneoxyphenyl]-2,4-pyrimidinediamine]	38200 nM
